Like-named read-outs stand apart in the source and are kept apart here.
Experiments:
[1] = on a mM basis
Description: Cells were inoculated into 24-well microtiter plates in 100 μL at 5×10^3 cells/well, in duplicate. After 24 h, test articles were added to the cells for 24 or 48 h, after which time the supernatant from each of the wells was collected and stored below −15° C. until LC/MS analysis.

DU145 = test: Sulforhodamine B (SRB) growth inhibition assay; assay type: cell-based, Human; conditions: SRB assay
Description: (§1) The aim was to determine the GI50 values for PEG-floxuridine conjugates against a panel of cell lines, and based on previous data from Xenograft studies. […] The test articles were solubilized in dimethylsulfoxide and were tested at four different molar (M) concentrations; 10^−4, 10^−5, 10^−6, M. GI50 (the concentration needed to reduce the growth of treated cells to half that of untreated control cells) was calculated for each condition ([(Ti−Tz)/(C-Tz)]×100=50, where Ti, Tz, and C refer to absorbance values obtained from each tested concentration, time zero, and control treatment, respectively).
as §1, with “The objective” for “The aim”, “the IC50” for “the GI50”, “for PEG-gemcitabine” for “for PEG-floxuridine”, “in dimethyl sulfoxide” for “in dimethylsulfoxide”, “10^−6, 10^−7” for “10^−6,”, “condition ([(Ti−Tz)/(C−Tz)]×100=50,” for “condition ([(Ti−Tz)/(C-Tz)]×100=50,”

CAKI-1 = test: In vitro cytotoxicity assay (CellTiter-Glo); assay type: cell-based
NCI/ADR-RES = test: Sulforhodamine B (SRB) growth inhibition assay; assay type: cell-based, Human
Description: (§2) In Vitro Screening of PEG-Gemcitabine Monophosphate in Selected Human Cancer Cell Lines
(§3) The aim was to determine the GI50 values for PEG-floxuridine conjugates against a panel of cell lines, and based on previous data from Xenograft studies. The cells were exposed for 24 h, and cell viability assessed by using the Sulphorhodamine (SRB) assay. The test articles were solubilized in dimethylsulfoxide and were tested at four different molar (M) concentrations; 10^−4, 10^−5, 10^−6, M. GI50 (the concentration needed to reduce the growth of treated cells to half that of untreated control cells) was calculated for each condition ([(Ti−Tz)/(C-Tz)]×100=50, where Ti, Tz, and C refer to absorbance values obtained from each tested concentration, time zero, and control treatment, respectively).
as §3, with “The objective” for “The aim”, “the IC50” for “the GI50”, “for PEG-gemcitabine” for “for PEG-floxuridine”, “in dimethyl sulfoxide” for “in dimethylsulfoxide”, “10^−6, 10^−7” for “10^−6,”, “condition ([(Ti−Tz)/(C−Tz)]×100=50,” for “condition ([(Ti−Tz)/(C-Tz)]×100=50,”

NCI-H460 = test: In vitro cytotoxicity assay (CellTiter-Glo); assay type: cell-based
Description: (§4) The objective of these studies was to determine the IC50 values for PEG-gemcitabine conjugates against gemcitabine-resistant cell lines based on data from previous Xenograft studies. The cells were exposed for 72 h, and cell viability assessed by using the CellTiter-Glo assay.

DLD-1 = test: In vitro cytotoxicity assay (CellTiter-Glo); assay type: cell-based
Description: as §4

CCRF-CEM = test: In vitro cytotoxicity assay (CellTiter-Glo); assay type: cell-based
Description: as §4

AS283 = test: In vitro cytotoxicity assay (CellTiter-Glo); assay type: cell-based
Description: as §4

HL-60 = test: In vitro cytotoxicity assay (CellTiter-Glo); assay type: cell-based
Description: as §4

K-562 = test: In vitro cytotoxicity assay (CellTiter-Glo); assay type: cell-based
Description: as §4

SW-620 = test: In vitro cytotoxicity assay (CellTiter-Glo); assay type: cell-based
Description: as §4

RL = test: In vitro cytotoxicity assay (CellTiter-Glo); assay type: cell-based
Description: as §4

NCI-H522 = test: In vitro cytotoxicity assay (CellTiter-Glo); assay type: cell-based
Description: as §4

NCI-H23 = test: In vitro cytotoxicity assay (CellTiter-Glo); assay type: cell-based
Description: as §4

HT29 = test: Sulforhodamine B (SRB) growth inhibition assay; assay type: cell-based, Human; conditions: for GI50: SRB assay
Description: as §2, §1
as §1, with “The objective” for “The aim”, “the IC50” for “the GI50”, “for PEG-gemcitabine” for “for PEG-floxuridine”, “in dimethyl sulfoxide” for “in dimethylsulfoxide”, “10^−6, 10^−7” for “10^−6,”, “condition ([(Ti−Tz)/(C−Tz)]×100=50,” for “condition ([(Ti−Tz)/(C-Tz)]×100=50,”

MCF7 = test: Sulforhodamine B (SRB) growth inhibition assay; assay type: cell-based, Human; conditions: for GI50: SRB assay
Description: as §2, §1
as §1, with “The objective” for “The aim”, “the IC50” for “the GI50”, “for PEG-gemcitabine” for “for PEG-floxuridine”, “in dimethyl sulfoxide” for “in dimethylsulfoxide”, “10^−6, 10^−7” for “10^−6,”, “condition ([(Ti−Tz)/(C−Tz)]×100=50,” for “condition ([(Ti−Tz)/(C-Tz)]×100=50,”

A2780 = test: Sulforhodamine B (SRB) growth inhibition assay; assay type: cell-based, Human; conditions: for GI50: SRB assay
Description: as §2, §1
as §1, with “The objective” for “The aim”, “the IC50” for “the GI50”, “for PEG-gemcitabine” for “for PEG-floxuridine”, “in dimethyl sulfoxide” for “in dimethylsulfoxide”, “10^−6, 10^−7” for “10^−6,”, “condition ([(Ti−Tz)/(C−Tz)]×100=50,” for “condition ([(Ti−Tz)/(C-Tz)]×100=50,”

COLO205 = test: Sulforhodamine B (SRB) growth inhibition assay; assay type: cell-based, Human; conditions: for GI50: COLO205, SRB assay
Description: as §2, §1
as §1, with “The objective” for “The aim”, “the IC50” for “the GI50”, “for PEG-gemcitabine” for “for PEG-floxuridine”, “in dimethyl sulfoxide” for “in dimethylsulfoxide”, “10^−6, 10^−7” for “10^−6,”, “condition ([(Ti−Tz)/(C−Tz)]×100=50,” for “condition ([(Ti−Tz)/(C-Tz)]×100=50,”

HCT15 = test: Sulforhodamine B (SRB) growth inhibition assay; assay type: cell-based, Human; conditions: for GI50: SRB assay
Description: as §2, §1
as §1, with “The objective” for “The aim”, “the IC50” for “the GI50”, “for PEG-gemcitabine” for “for PEG-floxuridine”, “in dimethyl sulfoxide” for “in dimethylsulfoxide”, “10^−6, 10^−7” for “10^−6,”, “condition ([(Ti−Tz)/(C−Tz)]×100=50,” for “condition ([(Ti−Tz)/(C-Tz)]×100=50,”

Hop62 = test: Sulforhodamine B (SRB) growth inhibition assay; assay type: cell-based, Human; conditions: for GI50: SRB assay
Description: as §2, §1
as §1, with “The objective” for “The aim”, “the IC50” for “the GI50”, “for PEG-gemcitabine” for “for PEG-floxuridine”, “in dimethyl sulfoxide” for “in dimethylsulfoxide”, “10^−6, 10^−7” for “10^−6,”, “condition ([(Ti−Tz)/(C−Tz)]×100=50,” for “condition ([(Ti−Tz)/(C-Tz)]×100=50,”

MIA PaCa-2 = test: In vitro cytotoxicity assay (CellTiter-Glo); assay type: cell-based
Description: (§5) The objective of these studies were to determine the IC50 values for PEG-floxuridine conjugates against floxuridine-resistant cell lines based on data from previous Xenograft studies. The cells were exposed for 72 h, and cell viability assessed by using the CellTiter-Glo assay.
as §4

HT-29 = test: In vitro cytotoxicity assay (CellTiter-Glo); assay type: cell-based
Description: as §5, §4

HCT-116 = test: In vitro cytotoxicity assay (CellTiter-Glo); assay type: cell-based
Description: as §5, §4

[2] = GI50 of conjugate vs gemcitabine

## COCCOCCOCCOCCOCCOCCOCCOP(=O)(O)OC[C@H]1O[C@@H](n2ccc(N)nc2=O)C(F)(F)[C@@H]1O.Cl [Gemcitabine Mono (mPEG7), 5′-gemcitabine methoxy hepta(ethylene glycol) phosphate hydrochloride]
[1]
  remains after 24 and 48 h: approximately 80%
DU145; 48 h drug exposure, read-out: GI50 (molar concentration) in Cell Line DU145
  GI50: < 0.1 µM
DU145; cells exposed for 24 h, read-out: GI50 values (μM) DU145
  GI50: < 0.1 µM
CAKI-1
  Ratio vs gem (IC50) CAKI-1: 6
CAKI-1; 72 h exposure, CellTiter-Glo
  IC50: 50 nM
NCI/ADR-RES; 48 h drug exposure, read-out: GI50 (molar concentration) in Cell Line NCI/ADR-RES
  GI50: 2 µM
NCI/ADR-RES; cells exposed for 24 h, read-out: GI50 values (μM) NCI/ADR-RES
  GI50: 2 µM
NCI-H460
  Ratio vs gem (IC50) NCI-H460: 3
NCI-H460; 72 h exposure, CellTiter-Glo
  IC50: 48 nM
DLD-1
  Ratio vs gem (IC50) DLD-1: 2
DLD-1; 72 h exposure, CellTiter-Glo
  IC50: 36 nM
CCRF-CEM
  Ratio vs gem (IC50) CCRF-CEM: 1
CCRF-CEM; 72 h exposure, CellTiter-Glo
  IC50: 10 nM
AS283
  Ratio vs gem (IC50) AS283: 3
AS283; 72 h exposure, CellTiter-Glo
  IC50: 398 nM
HL-60
  Ratio vs gem (IC50) HL-60: 2
HL-60; 72 h exposure, CellTiter-Glo
  IC50: 2.6 nM
K-562
  Ratio vs gem (IC50) K-562: 2
K-562; 72 h exposure, CellTiter-Glo
  IC50: 1150 nM
SW-620
  Ratio vs gem (IC50) SW-620: 4
SW-620; 72 h exposure, CellTiter-Glo
  IC50: 182 nM
RL
  Ratio vs gem (IC50) RL: 1
RL; 72 h exposure, CellTiter-Glo
  IC50: 259 nM
NCI-H522
  Ratio vs gem (IC50) NCI-H522: 6
NCI-H522; 72 h exposure, CellTiter-Glo
  IC50: 26 nM
NCI-H23
  Ratio vs gem (IC50) NCI-H23: 7
NCI-H23; 72 h exposure, CellTiter-Glo
  IC50: 47 nM
HT29; [2]
  ratio vs gem (GI50) HT29: 15
HT29; 48 h drug exposure, read-out: GI50 (molar concentration) in Cell Line HT29
  GI50: 32 µM
HT29; cells exposed for 24 h, read-out: GI50 values (μM) HT29
  GI50: 32 µM
MCF7; [2]
  ratio vs gem (GI50) MCF7: 2
MCF7; 48 h drug exposure, read-out: GI50 (molar concentration) in Cell Line MCF7
  GI50: 0.16 µM
MCF7; cells exposed for 24 h, read-out: GI50 values (μM) MCF7
  GI50: 0.16 µM
A2780; [2]
  ratio vs gem (GI50) A2780: 2
A2780; 48 h drug exposure, read-out: GI50 (molar concentration) in Cell Line A2780
  GI50: 0.15 µM
A2780; cells exposed for 24 h, read-out: GI50 values (μM) A2780
  GI50: 0.15 µM
COLO205; 48 h drug exposure, read-out: GI50 (molar concentration) in Cell Line COLO205
  GI50: 0.18 µM
COLO205; cells exposed for 24 h, read-out: GI50 values (μM) COLO205
  GI50: 0.18 µM
COLO205; COLO-205, GI50 of conjugate vs gemcitabine
  ratio vs gem (GI50) COLO-205: 1
HCT15; [2]
  ratio vs gem (GI50) HCT15: 14
HCT15; 48 h drug exposure, read-out: GI50 (molar concentration) in Cell Line HCT15
  GI50: 2.3 µM
HCT15; cells exposed for 24 h, read-out: GI50 values (μM) HCT15
  GI50: 2.3 µM
Hop62; [2]
  ratio vs gem (GI50) Hop62: 1
Hop62; 48 h drug exposure, read-out: GI50 (molar concentration) in Cell Line Hop62
  GI50: 2.4 µM
Hop62; cells exposed for 24 h, read-out: GI50 values (μM) Hop62
  GI50: 2.4 µM
MIA PaCa-2
  Ratio vs gem (IC50) MIA PaCa-2: 3
MIA PaCa-2; 72 h exposure, CellTiter-Glo
  IC50: 84 nM
HT-29
  Ratio vs gem (IC50) HT-29: 56
HT-29; 72 h exposure, CellTiter-Glo
  IC50: 6250 nM
HCT-116
  Ratio vs gem (IC50) HCT-116: 2
HCT-116; 72 h exposure, CellTiter-Glo
  IC50: 4 nM
